Assays:
PANC-1 [1] = test: Anticancer activity against human PANC1 cells; type: functional, cell-based
PANC-1 [2] = test: Cytotoxicity against human PANC1 cells assessed as decrease in cell viability after 72 hrs by MTT assay; type: functional, cell-based; conditions: PANC-1, 72 h

IC50 (PANC-1 [1]) [µM]	Compound	IC50 (PANC-1 [2]) [µM]
5	COC(=O)c1ccc2c(c1)nc(NC(=O)c1ccccc1)n2CCCc1ccccc1	–
–	CCN(CC)CCNC(=O)c1ccc(NCCN2C(=O)c3ccccc3C2=O)cc1	5

Reference: ChEMBL document CHEMBL4396911, “Recent progress in histone methyltransferase (G9a) inhibitors as anticancer agents” (Eur J Med Chem, 2019)
